US20230100367A1, “METHODS OF TREATING CDGSH IRON SULFUR DOMAIN 2 INSUFFICIENCY-ASSOCIATED DISORDERS” (National Yang Ming Chiao Tung University, priority 2021, published 2023)

System: Cisd2 promoter with firefly luciferase reporter (HEK293-CISD2)
Experiment: Cisd2-luciferase reporter assay
Format: cell-based
Settings: Homo sapiens; HEK293-CISD2 cells, 24 h incubation, luciferase activity
Description: Compounds 1-35 were tested for increasing the level of Cisd2 in human embryonic kidney cells 293 (HEK293), a transfected cell line expressing Cisd2, using the Cisd2-luciferase reporter assay as described below.
The transfected HEK293 cells stably expressed Cisd2 promoter with firefly luciferase reporter (“HEK293-CISD2”). They were kept in Dulbecco's modified Eagle's medium (“DMEM”) (Gibco, New York, N.Y.). Culture medium was supplemented with 10% heat-inactivated fetal bovine serum (“FBS”), 2 mM L-Glutamine, 1 mM sodium pyruvate, 0.1% MEM Non-Essential Amino Acids, 1 μg/ml puromycin and 1% penicillin/streptomycin (HyClone, Logan, Utah). The cells were maintained at 37° C. in an incubator (Thermo Fisher Scientific, Waltham, Mass.) with an atmosphere of 5% CO2. The stably transfected cells were seeded in 384-well plates at a density of 3×10^3 cells/well. After incubation with a tested compound at 37° C. for 24 h, ONE-Glo™ Luciferase Assay System (Promega, Madison, Wis.) was added at room temperature for 10 minutes to detect any luciferase activity. Luminescence intensity was registered using plate reader BioTek Synergy Neo2™ (Agilent, Santa Clara, Calif.).
EC50 values in this table are presented in […] classes, i.e., A: <1 μM and B: 1 μM-10 μM.

Compound	EC50 [µM]
Cc1ccc(NC(=O)c2sc(N)c(C#N)c2C)c(C)c1 [Compound 2, 5-Amino-4-cyano-N-(2,4-dimethylphenyl)-3-methylthiophene-2-carboxamide]	1 to 10
COC(=O)c1c(N)sc(C(=O)Nc2cccnc2)c1C [Compound 3, Methyl 2-amino-4-methyl-5-(pyridin-3-ylcarbamoyl)thiophene-3-carboxylate]	< 1
COC(=O)c1c(N)sc(C(=O)OC(C)(C)C)c1C [Compound 4, 2-tert-Butyl 4-methyl 5-amino-3-methylthiophene-2,4-dicarboxylate]	1 to 10
CCOC(=O)c1c(N)sc(C(=O)Nc2ccc(F)cc2)c1C [Compound 5, Ethyl 2-amino-5-[(4-fluorophenyl)carbamoyl]-4-methylthiophene-3-carboxylate]	< 1
COC(=O)c1c(N)sc(C(=O)Nc2ccc(OC)cc2)c1C [Compound 6, Methyl 2-amino-5-[(4-methoxyphenyl)carbamoyl]-4-methylthiophene-3-carboxylate]	< 1
COC(=O)c1c(N)sc(C(=O)Nc2ccccc2C)c1C [Compound 7, Methyl 2-amino-4-methyl-5-[(2-methylphenyl)carbamoyl]thiophene-3-carboxylate]	< 1
COC(=O)c1c(N)sc(C(=O)Nc2ccc(C)cc2)c1C [Compound 8, Methyl 2-amino-4-methyl-5-[(4-methylphenyl)carbamoyl]thiophene-3-carboxylate]	< 1
COC(=O)c1c(N)sc(C(=O)Nc2ccccc2)c1C [Compound 9, Methyl 2-amino-4-methyl-5-(phenylcarbamoyl)thiophene-3-carboxylate]	< 1
COC(=O)c1c(N)sc(C(=O)Nc2ccc(C(F)(F)F)cc2)c1C [Compound 10, Methyl 2-amino-4-methyl-5-{-[4-(trifluoromethyl)phenyl]carbamoyl}thiophene-3-carboxylate]	< 1
COC(=O)c1c(N)sc(C(=O)Nc2ccc(N(C)C)cc2)c1C [Compound 11, Methyl 2-amino-5-{-[4-(dimethylamino)phenyl]carbamoyl}-4-methylthiophene-3-carboxylate]	< 1
Cc1ccc(NC(=O)c2sc(N)c(C(N)=O)c2C)c(C)c1 [Compound 12, 5-Amino-N^2-(2,4-dimethylphenyl)-3-methylthiophene-2,4-dicarboxamide]	< 1
COC(=O)c1c(N)sc(C(=O)Nc2ccc(F)cc2)c1C [Compound 13, Methyl 2-amino-5-[(4-fluorophenyl)carbamoyl]-4-methylthiophene-3-carboxylate]	< 1
Cc1ccc(NC(=O)c2sc(N)c(C(=O)OC(C)C)c2C)c(C)c1 [Compound 14, Propan-2-yl 2-amino-5-[(2,4-dimethylphenyl)carbamoyl]-4-methylthiophene-3-carboxylate]	1 to 10
COC(=O)c1c(N)sc(C(=O)Nc2ccc(C#N)cc2)c1C [Compound 15, Methyl 2-amino-5-[(4-cyanophenyl)carbamoyl]-4-methylthiophene-3-carboxylate]	< 1
COC(=O)c1c(N)sc(C(=O)Nc2cccc(C)c2)c1C [Compound 16, Methyl 2-amino-4-methyl-5-[(3-methylphenyl)carbamoyl]thiophene-3-carboxylate]	< 1
COC(=O)c1c(N)sc(C(=O)Nc2c(C)cc(C)cc2C)c1C [Compound 17, Methyl 2-amino-4-methyl-5-[(2,4,6-trimethylphenyl)carbamoyl]thiophene carboxylate]	1 to 10
COC(=O)c1c(N)sc(C(=O)Nc2cc(OC)c(OC)c(OC)c2)c1C [Compound 18, Methyl 2-amino-4-methyl-5-[(3,4,5-trimethoxyphenyl)carbamoyl]thiophene-3-carboxylate]	1 to 10

Compound	EC50 [µM]
COC(=O)c1c(N)sc(C(=O)Nc2nccs2)c1C [Compound 19, Methyl 2-amino-4-methyl-5-(1,3-thiazol-2-ylcarbamoyl)thiophene-3-carboxylate]	< 1
COC(=O)c1c(N)sc(C(=O)Nc2cccc(OC)c2)c1C [Compound 20, Methyl 2-amino-5-[(3-methoxyphenyl)carbamoyl]-4-methylthiophene-3-carboxylate]	< 1
COC(=O)c1c(N)sc(C(=O)Nc2ccc(O)cc2)c1C [Compound 21, methyl 2-amino-5-[(4-hydroxyphenyl)carbamoyl]-4-methylthiophene-3-carboxylate]	< 1
COC(=O)c1cc(C(=O)Nc2ccc(C)cc2C)sc1N [Compound 22, Methyl 2-amino-5-[(2,4-dimethylphenyl)carbamoyl]thiophene-3-carboxylate]	1 to 10
COC(=O)c1c(N)sc(C(=O)Nc2ccc(C)cc2C)c1Br [Compound 23, methyl 2-amino-4-bromo-5-[(2,4-dimethylphenyl)carbamoyl]thiophene-3-carboxylate]	< 1
COC(=O)c1c(N)sc(C(=O)Cc2ccc(C)cc2C)c1C [Compound 24, methyl 2-amino-5-[(2,4-dimethylphenyl)acetyl]-4-methylthiophene-3-carboxylate]	1 to 10
CCOC(=O)c1c(N)sc(C(=O)Nc2ccc(C)cc2C)c1C [Compound 25, Ethyl 2-amino-5-[(2,4-dimethylphenyl)carbamoyl]-4-methylthiophene-3-carboxylate]	< 1
CCOC(=O)c1cccc(NC(=O)c2sc(N)c(C(=O)OCC)c2C)c1 [Compound 26, Ethyl 2-amino-5-{[3-(ethoxycarbonyl)phenyl]carbamoyl}-4-methylthiophene-3-carboxylate]	1 to 10
Cc1ccc(NC(=O)c2sc(N)c(C(=O)O)c2C)c(C)c1 [Compound 27, 2-amino-5-[(2,4-dimethylphenyl)carbamoyl]-4-methylthiophene-3-carboxylic acid]	< 1
Cc1ccc(NC(=O)c2sc(N)c(C(=O)NCC#N)c2C)c(C)c1 [Compound 28, 5-amino-N^4-(cyanomethyl)-N^2-(2,4-dimethylphenyl)-3-methylthiophene-2,4-dicarboxamide]	1 to 10
Cc1ccc(NC(=O)c2sc(N)c(C(=O)CO)c2C)c(C)c1 [Compound 29, 5-amino-N-(2,4-dimethylphenyl)-4-(hydroxyacetyl)-3-methylthiophene-2-carboxamide]	< 1
CC(=O)c1c(N)sc(C(=O)Nc2ccc(C)cc2C)c1C [Compound 30, 4-acetyl-5-amino-N-(2,4-dimethylphenyl)-3-methylthiophene-2-carboxamide]	< 1
CC(=O)c1c(N)sc(C(=O)Nc2ccccc2)c1C [Compound 31, 4-Acetyl-5-amino-3-methyl-N-phenylthiophene-2-carboxamide]	< 1
CC(=O)c1c(N)sc(C(=O)Nc2ccc(F)cc2)c1C [Compound 32, 4-Acetyl-5-amino-N-(4-fluorophenyl)-3-methylthiophene-2-carboxamide]	< 1
COC(=O)c1c(NC(C)=O)sc(C(=O)Nc2ccc(C)cc2C)c1C [Compound 33]	1 to 10
Cc1ccc(NC(=O)c2sc(N)c(C(=O)OC(C)(C)C)c2C)c(C)c1 [Compound 34, tert-Butyl 2-amino-5-[(2,4-dimethylphenyl)carbamoyl]-4-methylthiophene carboxylate]	1 to 10
COC(=O)c1c(N)sc(C(=O)Nc2ccccc2OC)c1C [Compound 35, Methyl 2-amino-5-[(2-methoxyphenyl)carbamoyl]-4-methylthiophene-3-carboxylate]	1 to 10
